For this assay, the target named is T1, GacB (MxGacB, MXAN_2643), Hypr GGDEF enzyme (Myxococcus xanthus, UniProt Q1D911).
T1 sequence (Q1D911 1-364): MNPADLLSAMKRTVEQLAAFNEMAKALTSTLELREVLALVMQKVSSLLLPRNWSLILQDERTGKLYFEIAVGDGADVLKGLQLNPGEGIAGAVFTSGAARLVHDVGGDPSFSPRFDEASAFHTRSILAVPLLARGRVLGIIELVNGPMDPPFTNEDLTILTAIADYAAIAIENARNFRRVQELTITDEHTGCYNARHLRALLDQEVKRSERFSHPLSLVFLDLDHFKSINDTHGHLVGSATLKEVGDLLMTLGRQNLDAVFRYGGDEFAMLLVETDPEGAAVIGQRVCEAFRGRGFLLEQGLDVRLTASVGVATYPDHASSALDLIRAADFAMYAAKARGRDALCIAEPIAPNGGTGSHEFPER
Kind of assay: LC-MS inhibition assay. Format: biochemical.

The term IC50 denotes the concentration that gives 50% inhibition.

Turning to `Nc1nc2c(ncn2[C@@H]2O[C@@H]3CO[P@](=O)(O)O[C@H]4[C@@H](O)[C@H](n5cnc6c(=O)[nH]c(N)nc65)O[C@@H]4CO[P@](=O)(O)O[C@H]3[C@H]2O)c(=O)[nH]1` [cdiG, cyclic di-GMP], the half-inhibitory concentration (IC50) came out at 17.8 µM.

Source of the values: article PMC7209772 (Molecular microbiology, 2019).
